Values of other authors as cited in patent US8273874B2, “Method of dynamic nuclear polarisation (DNP) and compounds and compositions for use in the method” (GE Healthcare AS, priority 2006, dated 2012).

Conditions: human full blood at 37° C.

Compound: CC(=O)[13C](=O)O [^13C1-pyruvate]
- T1 relaxation: about 42 s
